Results on ten compounds are retold here after patent US12539292B2, “BRM targeting compounds and associated methods of use” (Arvinas Operations, Inc., priority 2018, dated 2026).

Each structure is given as a SMILES string. Like-named read-outs stand apart in the source and are kept apart here.

This assay deals with T1, BRM (Homo sapiens, UniProt P51531).
T1 construct: In-Cell Western Screen of BRM Degradation in SW1573 Cells; endogenous in cells; host or cells: SW1573
The assay can be described thus: In-cell Western screen of BRM degradation in SW1573 cells (Dmax and DC50). It is filed as cell-based. Put shortly:
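After adhering overnight, cells received compound for 18-20 hours. They were then washed in cold DPBS, fixed with 4% PFA for 20 min and permeabilized for 30 min. Blocking and fluorescent secondary staining followed before imaging.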

Setting [1] is: BRM degradation, SW1573 cells, read-out: DC50.
The mark [2] stands for this setting: BRM degradation, SW1573 cells, Table 2D, read-out: **Dmax (%) (% degraded).
Setting [3] is: BRM degradation, SW1573 cells, Table 2D, read-out: *DC50.
Where [4] appears, read: degradation of BRM, read-out: BRM DC50.

T1 sequence (P51531 whole entry): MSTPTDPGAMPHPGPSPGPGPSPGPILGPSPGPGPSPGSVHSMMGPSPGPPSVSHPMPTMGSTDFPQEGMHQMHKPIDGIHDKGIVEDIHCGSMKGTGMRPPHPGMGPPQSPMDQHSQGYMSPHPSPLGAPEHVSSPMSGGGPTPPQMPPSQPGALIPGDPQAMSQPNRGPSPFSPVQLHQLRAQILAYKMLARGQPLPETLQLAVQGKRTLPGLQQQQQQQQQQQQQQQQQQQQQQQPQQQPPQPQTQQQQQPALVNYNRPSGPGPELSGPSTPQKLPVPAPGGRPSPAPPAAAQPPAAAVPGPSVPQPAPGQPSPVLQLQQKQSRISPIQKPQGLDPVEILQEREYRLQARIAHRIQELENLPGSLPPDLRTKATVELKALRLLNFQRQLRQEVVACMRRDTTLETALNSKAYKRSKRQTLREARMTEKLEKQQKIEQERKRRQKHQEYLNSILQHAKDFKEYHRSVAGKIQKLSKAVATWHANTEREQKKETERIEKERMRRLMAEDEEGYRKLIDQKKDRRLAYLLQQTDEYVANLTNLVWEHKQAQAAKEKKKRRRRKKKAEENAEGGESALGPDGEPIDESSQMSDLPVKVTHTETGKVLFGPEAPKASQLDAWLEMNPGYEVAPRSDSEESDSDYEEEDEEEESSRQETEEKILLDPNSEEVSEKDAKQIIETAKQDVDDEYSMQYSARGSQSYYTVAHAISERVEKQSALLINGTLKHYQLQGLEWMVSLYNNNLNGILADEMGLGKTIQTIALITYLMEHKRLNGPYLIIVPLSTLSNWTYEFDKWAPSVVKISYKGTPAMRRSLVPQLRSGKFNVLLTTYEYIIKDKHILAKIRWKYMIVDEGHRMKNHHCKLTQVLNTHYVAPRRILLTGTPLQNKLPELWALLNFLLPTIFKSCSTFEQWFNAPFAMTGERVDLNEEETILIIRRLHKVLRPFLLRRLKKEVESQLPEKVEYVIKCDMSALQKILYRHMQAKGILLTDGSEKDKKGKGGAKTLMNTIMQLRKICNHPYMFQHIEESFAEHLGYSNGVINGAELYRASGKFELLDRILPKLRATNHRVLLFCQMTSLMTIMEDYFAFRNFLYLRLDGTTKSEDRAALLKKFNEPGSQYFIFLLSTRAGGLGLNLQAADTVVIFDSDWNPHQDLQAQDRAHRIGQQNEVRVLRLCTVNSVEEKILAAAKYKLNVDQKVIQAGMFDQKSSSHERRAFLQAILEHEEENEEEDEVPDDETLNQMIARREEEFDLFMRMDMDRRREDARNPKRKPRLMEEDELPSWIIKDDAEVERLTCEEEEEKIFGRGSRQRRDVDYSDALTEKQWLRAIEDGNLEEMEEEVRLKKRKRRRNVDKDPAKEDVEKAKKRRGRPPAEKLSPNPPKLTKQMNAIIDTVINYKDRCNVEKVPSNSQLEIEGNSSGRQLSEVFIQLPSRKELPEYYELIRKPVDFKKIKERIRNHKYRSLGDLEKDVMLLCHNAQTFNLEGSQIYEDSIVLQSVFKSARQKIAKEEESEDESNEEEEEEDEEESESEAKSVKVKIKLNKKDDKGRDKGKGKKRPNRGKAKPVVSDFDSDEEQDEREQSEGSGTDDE

For the compound `Cc1ncsc1-c1ccc([C@H](C)NC(=O)[C@@H]2C[C@@H](O)CN2C(=O)[C@@H](NC(=O)CN2CCC(OC3CC(Oc4cc(N5C6CC[C@@H]5CN(c5cc(-c7ccccc7O)nnc5N)C6)ccn4)C3)CC2)C(C)(C)C)cc1` (stereo partly drawn) [compound 520, (2S,4R)-1-((2S)-2-(2-(4-((1r,3S)-3-((4-(3-(3-amino-6-(2-hydroxyphenyl)pyridazin-4-yl)-3,8-diazabicyclo[3.2.1]octan-8-yl)pyridin-2-yl)oxy)cyclobutoxy)pipcridin-1-yl)acetamido)-3,3-dimethylbutanoyl)-4-hydroxy-N-((S)-1-(4-(4-methylthiazol-5-yl)phenyl)ethyl)pyrrolidine-2-carboxamide], for the setting “% degraded, when tested at the top concentration of between 0.3 and 10 μM”, the “BRM Dmax (%)” value is recorded as “A (A > 75)”. The 50% degradation concentration (DC50) (BRM degradation, read-out: BRM DC50) is below 2.5 nM.
On to `CC(C)[C@H](C(=O)N1C[C@H](O)C[C@H]1C(=O)N[C@@H](C)c1ccc(C(F)(F)F)cc1)c1cc(OCCN2CCC(O[C@H]3C[C@H](Oc4cc(N5C6CCC5CN(c5cc(-c7ccccc7O)nnc5N)C6)ccn4)C3)CC2)no1` [compound 247, (2S,4R)-1-((2S)-2-(3-(2-(4-((1r,3S)-3-((4-(3-(3-amino-6-(2-hydroxyphenyl)pyridazin-4-yl)-3,8-diazabicyclo[3.2.1]octan-8-yl)pyridin-2-yl)oxy)cyclobutoxy)piperidin-1-yl)ethoxy)isoxazol-5-yl)-3-methylbutanoyl)-4-hydroxy-N-((S)-1-(4-(trifluoromethyl)phenyl)ethyl) pyrrolidine-2-carboxamide], for which the DC50 under setting [1] was above 30 nM.
For `Cc1ncsc1-c1ccc([C@H](C)NC(=O)[C@@H]2C[C@@H](O)CN2C(=O)[C@@H](c2cc(OCCC3CCN(C[C@H]4C[C@H](Oc5cc(N6C7CCC6CN(c6cc(-c8ccccc8O)nnc6N)C7)ccn5)C4)CC3)no2)C(C)C)c(F)c1F` [compound 588, (2S,4R)-1-((2R)-2-(3-(2-(1-(((1r,3R)-3-((4-(3-(3-amino-6-(2-hydroxyphenyl)pyridazin-4-yl)-3,8-diazabicyclo[3.2.1]octan-8-yl)pyridin-2-yl)oxy)cyclobutyl)methyl)piperidin-4-yl)ethoxy)isoxazol-5-yl)-3-methylbutanoyl)-N-((S)-1-(2,3-difluoro-4-(4-methylthiazol-5-yl)phenyl)ethyl)-4-hydroxypyrrolidine-2-carboxamide], the Dmax under setting [2] was above 75%. Under setting [3], the DC50 was below 2.5 nM.
As to `Cc1ncsc1-c1ccc([C@H](C)NC(=O)[C@@H]2C[C@@H](O)CN2C(=O)C(c2cc(O[C@H]3C[C@H](N4CCC(O[C@H]5C[C@H](Oc6cc(N7C8CCC7CN(c7cc(-c9ccccc9O)nnc7N)C8)ccn6)C5)CC4)C3)no2)C(C)C)cc1` (stereo partly drawn) [compound 411, (2S,4R)-1-(2-(3-((1R,3S)-3-(4-((1r,3R)-3-((4-(3-(3-amino-6-(2-hydroxyphenyl)pyridazin-4-yl)-3,8-diazabicyclo[3.2.1]octan-8-yl)pyridin-2-yl)oxy)cyclobutoxy)piperidin-1-yl)cyclobutoxy)isoxazol-5-yl)-3-methylbutanoyl)-4-hydroxy-N-((S)-1-(4-(4-methylthiazol-5-yl)phenyl)ethyl)pyrrolidine-2-carboxamide], under “SW1573, % degraded, when tested at the top concentration of between 0.3 and 10 μM, read-out: BRM Dmax (%)”, the Dmax is above 75%. Moreover, the DC50 under setting [4] is below 2.5 nM.
Regarding `Cc1cc([C@H](C(=O)N2C[C@H](O)C[C@H]2C(=O)N[C@@H](C)c2ccc(-c3scnc3C)cc2)[C@H](C)COCCCCN2C3CCC2CN(c2cc(-c4ccccc4O)nnc2N)C3)on1` [compound 425, (2S,4R)-1-((2R,3S)-4-(4-(3-(3-amino-6-(2-hydroxyphenyl)pyridazin-4-yl)-3,8-diazabicyclo[3.2.1]octan-8-yl)butoxy)-3-methyl-2-(3-methylisoxazol-5-yl)butanoyl)-4-hydroxy-N-((S)-1-(4-(4-methylthiazol-5-yl)phenyl)ethyl)pyrrolidine-2-carboxamide], the half-maximal degradation concentration (DC50) under setting [4] was above 30 nM.
Consider `CC(C)[C@@H](C(=O)N1C[C@H](O)C[C@H]1C(=O)N[C@@H](C)c1ccc(-c2ccnn2C)cc1)c1cc(OCCN2CCN(CCOc3cc(N4C5CCC4CN(c4cc(-c6ccccc6O)nnc4N)C5)ccn3)CC2)no1` [compound 264, (2S,4R)-1-((2R)-2-(3-(2-(4-(2-((4-(3-(3-amino-6-(2-hydroxyphenyl)pyridazin-4-yl)-3,8-diazabicyclo[3.2.1]octan-8-yl)pyridin-2-yl)oxy)ethyl)piperazin-1-yl)ethoxy)isoxazol-5-yl)-3-methylbutanoyl)-4-hydroxy-N-((S)-1-(4-(1-methyl-1H-pyrazol-5-yl)phenyl)ethyl)pyrrolidine-2-carboxamide], for which the DC50 under setting [1] is below 2.5 nM. The maximal degradation (Dmax) (BRM degradation, SW1573 cells, tested at the top concentration of between 0.3 and 10 μM, read-out: Dmax (%) (% degraded)) is above 75%.
Take `Cc1ncsc1-c1ccc([C@H](C)NC(=O)[C@@H]2C[C@@H](O)CN2C(=O)[C@@H](c2cc(N3CCC(CN4CCC(OC5CC(Oc6cc(N7C8CC[C@@H]7CN(c7cc(-c9ccccc9O)nnc7N)C8)ccn6)C5)CC4)CC3)no2)C(C)C)cc1O` (stereo partly drawn) [compound 691, (2S,4R)-1-((2R)-2-(3-(4-((4-((1r,3r)-3-((4-(3-(3-amino-6-(2-hydroxyphenyl)pyridazin-4-yl)-3,8-diazabicyclo[3.2.1]octan-8-yl)pyridin-2-yl)oxy)cyclobutoxy)piperidin-1-yl)methyl)piperidin-1-yl)isoxazol-5-yl)-3-methylbutanoyl)-4-hydroxy-N-((S)-1-(3-hydroxy-4-(4-methylthiazol-5-yl)phenyl)ethyl)pyrrolidine-2-carboxamide]: the “Dmax (% degraded)” value (BRM degradation, SW1573 cells) is on record as “A (A > 75)”. Further, the 50% degradation concentration (DC50) under setting [1] is below 2.5 nM.
In the case of `Cc1nccn1-c1ccc([C@H](C)NC(=O)[C@@H]2C[C@@H](O)CN2C(=O)C(c2cc(N3CCC(CN4CCC(O[C@H]5C[C@H](Oc6cc(N7C8CCC7CN(c7cc(-c9ccccc9O)nnc7N)C8)ccn6)C5)CC4)CC3)no2)C(C)C)cc1` (stereo partly drawn) [compound 607, (2S,4R)-1-((2R)-2-(3-(4-((4-((1r,3r)-3-((4-(3-(3-amino-6-(2-hydroxyphenyl)pyridazin-4-yl)-3,8-diazabicyclo[3.2.1]octan-8-yl)pyridin-2-yl)oxy)cyclobutoxy)piperidin-1-yl)methyl)piperidin-1-yl)isoxazol-5-yl)-3-methylbutanoyl)-4-hydroxy-N-((S)-1-(4-(2-methyl-1H-imidazol-1-yl)phenyl)ethyl)pyrrolidine-2-carboxamide], the Dmax under setting [2] is above 75%. Also, the DC50 under setting [3] was below 2.5 nM.
As for `Cc1ncsc1-c1ccc([C@H](C)NC(=O)[C@@H]2C[C@@H](O)CN2C(=O)[C@@H](c2cc(N3CCC(CN4CCC(O[C@H]5C[C@H](Oc6cc(N7CCOC8(CCN(c9cc(-c%10ccccc%10O)nnc9N)CC8)C7)ccn6)C5)CC4)CC3)no2)C(C)C)cc1` [compound 716, (2S,4R)-1-((R)-2-(3-(4-((4-((1r,3r)-3-((4-(9-(3-amino-6-(2-hydroxyphenyl)pyridazin-4-yl)-1-oxa-4,9-diazaspiro[5.5]undecan-4-yl)pyridin-2-yl)oxy)cyclobutoxy)piperidin-1-yl)methyl)piperidin-1-yl)isoxazol-5-yl)-3-methylbutanoyl)-4-hydroxy-N-((S)-1-(4-(4-methylthiazol-5-yl)phenyl)ethyl)pyrrolidine-2-carboxamide], under setting [1], the DC50 was below 2.5 nM. Where the note is “BRM degradation, SW1573 cells, read-out: Dmax (% degraded)”, the maximal degradation (Dmax) was above 75%.
Turning to `Cc1ncsc1-c1ccc([C@H](C)NC(=O)[C@@H]2C[C@@H](O)CN2C(=O)[C@@H](c2cc(N3CCC(OC4CCN(CC5CC(CN6CCC([C@@H](C)n7cc(-c8cc(-c9ccccc9O)nnc8N)cn7)CC6)C5)CC4)CC3)no2)C(C)C)cc1` (single isomer, unassigned) [compound 596], under setting [2], the greatest degradation seen (Dmax) is above 75%. Under setting [3], the DC50 is below 2.5 nM.

By DC50 is commonly meant the midpoint of the concentration-degradation curve. As usually defined, the Dmax is the greatest extent of degradation seen.
